Results on 4 molecules are retold here after patent US20230338463A1, “ICD PEPTIDE AND USE THEREOF FOR HAVING CYTOTOXIC ACTIVITY ON CANCER CELLS” (NATIONAL TSING HUA UNIVERSITY, priority 2022, published 2023).

For data set [1], the system named is CGNHC9 cells (oral squamous cell carcinoma). Conditions: for cell viability percentage: human, 24 h. The source says: (§1) Three non-small cell lung cancer cell lines (H1975, A549, PC9) and two oral cancer cell lines (CGNHC9, OECM-1) were used in the present invention. H1975 is the non-small cell lung carcinoma tissue, A549 is the adenocarcinomic alveolar basal epithelial cells and PC9 is the non-small cell lung cancer with EGFR mutation. CGNHC9 and OECM-1 cell lines refer to oral squamous cell carcinoma and gingival epidermoid carcinoma respectively. The abovemetioned cell lines were derived from human origin and being cultured in the humidified incubator containing 5% CO2 at 37° C. CGNHC9 cell line was cultured in Dulbecco’s modified Eagle’s medium (GIBCO Life Technologies Corporation, NY, USA) with 10% fetal bovine serum (FBS), 2 mM L-glutamine and 1% penicillin/ streptomycin and Roswell Park Memorial Institute 1640 (RPMI 1640, GIBCO Life Technologies Corporation, NY, USA) medium with 10% fetal bovine serum (FBS), 2 mM L-glutamine and 1% penicillin/ streptomycin was used as the culture medium for the rest of the cell lines.
(§2) The anticancer activity of ICD peptides include, not limited, SEQ ID NO: 1 and its derivative peptides (SEQ ID NO: 2, SEQ ID NO: 3, SEQ ID NO: 4, and SEQ ID NO: 5) was using the 3-(4,5-Dimethyl-2-thiazolyl)-2,5-diphenyl-2H-tetrazolium bromide (MTT, Sigma Aldrich, St. Louis, MO, USA) colorimetric assay for cell viability test. The cells include, not limited, H1975, A549, PC9, CGNHC9, OECM-1, MN-11 and HFW cells/cell lines.
(§3) The cells were seeded in the 96-well plate at 5000 cells/well under the environment of humidified 5% CO2 and the temperature of 37° C. for 24 hours. The medium was removed from the well before the fresh medium containing different concentrations of ICD peptides was added and incubated for 24 hours. Medium with PBS solution was used as control group. All ICD peptides were diluted serially from 100 µM to 0.78 µM in ddH2O before adding in the medium. After 24 hours of ICD peptide treatment, fresh medium with 10% MTT solution (5 mg/mL) was incubated for additional 4 hours in advance of dissolving the formazan crystal in 100 µL DMSO (Dimethyl sulfoxide, Sigma Aldrich) solution. The calculation of cell survival rate was completed by measuring the absorbance at 570 nm using microplate reader (TECAN Sunrise ELISA Reader).
(§4) The cell survival was calculated from the treated cells relative to the control (100% viable cells) using the mean of three independent experiments and expressed as a 50% inhibitory concentration (IC50).
(§5) The percentage of cell viability was calculated using the following formula: […]
(§6) The half inhibition concentration (IC50) is the concentration required by the drug to reach fifty percent inhibition. In one embodiment, the SEQ ID NO: 1 and its derivative peptides (SEQ ID NO:2, SEQ ID NO:3, SEQ ID NO:4, SEQ ID NO: 5) was used for IC50 test via MTT colorimetric assay.

In data set [2] the test system is OECM-1 cells (gingival epidermoid carcinoma). The following applies: for cell viability percentage: human, 24 h.
Excerpt: as §1, §2, §3, §4, §5, §6

In data set [3] the test system is PC9 cells (non-small cell lung cancer with EGFR mutation). Conditions: human, 24 h.
Excerpt: as §1, §2, §3, §4, §5, §6

For the next data set, the system named is MN-11 cell line. Type of data set: cell-based, murine. The following applies: 2 h. On the procedure: Besides, evaluation of the killing kinetics of Nal-P-113, Bip-P-113 and Dip-P-113 for MN-11 was determined by MTT assay. Two-fold half 1inhibitory concentration (2 × IC50) was chosen for the experiments and the results were recorded at selected time points (30 mins, 1 hour, 2 hours and 4 hours). […] In 2 hours, the cell survival rate was near 50%.

Data set [4] relates to MN-11 cells (murine fibrosarcoma). Type of data set: cell-based. The source says: Medium with PBS solution was used as control group.
Besides, MTT assay was used to test the cell viability of the murine fibrosarcoma MN-11 cell line. Among the peptides, Dip-P-113 had the lowest cytotoxicity against MN-11 cells (FIG. 1F).

Data set [5] has as its system H1975 cells (non-small cell lung cancer). Conditions: 24 h.
Excerpt: as §1, §2, §3, §4, §5, §6

For data set [6], the system named is A549 cells (adenocarcinomic alveolar basal epithelial cells). Conditions: A549, MTT, 24 hours.
Excerpt: as §1, §2, §3, §4, §5, §6

Non-standard residues stand in square brackets, D forms with d. Residues, ends and D or L forms follow the SMILES beside them. Bip = N[C@@H](Cc1ccc(-c2ccccc2)cc1)C(=O)O; Dip = N[C@H](C(=O)O)C(c1ccccc1)c1ccccc1

In general, IC50 refers to the point on the concentration scale where inhibition reaches its midpoint. Higher therefore signals weaker potency.

Turning to `CC(=O)N[C@@H](C)C(=O)N[C@@H](CCCCN)C(=O)N[C@@H](CCCNC(=N)N)C(=O)N[C@@H](Cc1ccc(-c2ccccc2)cc1)C(=O)N[C@@H](Cc1ccc(-c2ccccc2)cc1)C(=O)NCC(=O)N[C@@H](Cc1ccc(O)cc1)C(=O)N[C@@H](CCCCN)C(=O)N[C@@H](CCCNC(=N)N)C(=O)N[C@@H](CCCCN)C(=O)N[C@@H](Cc1ccccc1)C(=O)N[C@@H](Cc1ccc(-c2ccccc2)cc1)C(N)=O` [SEQ ID NO:4, Ac-AKR Bip Bip GYKRKF Bip-NH2] (Ac-AKR[Bip][Bip]GYKRKF[Bip]-NH2), the cell viability percentage result in data set [1], in data set [2] and in data set [3] was “lower than 20%” throughout. In the data set on MN-11 cell line, this molecule gave a cell survival rate of around 50%. This molecule showed an IC50 in data set [4] of 12.1 ± 0.47 µM.
For the molecule `CC(=O)N[C@@H](C)C(=O)N[C@@H](CCCCN)C(=O)N[C@@H](CCCNC(=N)N)C(=O)N[C@H](C(=O)N[C@H](C(=O)NCC(=O)N[C@@H](Cc1ccc(O)cc1)C(=O)N[C@@H](CCCCN)C(=O)N[C@@H](CCCNC(=N)N)C(=O)N[C@@H](CCCCN)C(=O)N[C@@H](Cc1ccccc1)C(=O)N[C@H](C(N)=O)C(c1ccccc1)c1ccccc1)C(c1ccccc1)c1ccccc1)C(c1ccccc1)c1ccccc1` [SEQ ID NO: 5, Ac-AKR Dip Dip GYKRKFDip-NH2] (Ac-AKR[Dip][Dip]GYKRKF[Dip]-NH2), the cell viability percentage entry in data set [1], in data set [2] and in data set [3] was “lower than 20%” in each case. Further, the values for the IC50 in data set [5] and in data set [4] were 100 µM and 59.8 ± 6.13 µM, respectively. Besides, in the data set with MN-11 cell line, the cell survival rate is given as around 50%.
In turn, “Ac-AKRFFGYKRKFF-NH2 [SEQ ID NO:2, Ac-AKR Phe Phe GYKRKF Phe-NH2]” registered a half-inhibitory concentration (IC50) in data set [5] of 107 µM.
As to “Ac-AKRHHGYKRKFH-NH2 [SEQ ID NO: 1, Ac-AKR His His GYKRKF His-NH2]”, the IC50 was found to be 84.3 µM in data set [1] (CGNHC9, MTT, 24 hours); 141 µM in data set [2] (OECM-1, MTT, 24 hours); 110 µM in data set [5]; 107 µM in data set [6].
